Reference: article PMC7399811, “Analogues of a Cyclic Antimicrobial Peptide with a Flexible Linker Show Promising Activity against Pseudomonas aeruginosa and Staphylococcus aureus” (Antibiotics, 2020)
Converted amounts (≈) assume the structure as drawn. Square brackets hold non-standard residues; d marks the D form. Peptide text beside a SMILES is read from it. Bip = N[C@@H](Cc1ccc(-c2ccccc2)cc1)C(=O)O; 2Nal = N[C@@H](Cc1ccc2ccccc2c1)C(=O)O; Dab = NCC[C@H](N)C(=O)O; AEEA = NCCOCCOCC(=O)O

How the values were obtained:
[1] = system: S. aureus, P. aeruginosa, E. coli, A. baumannii; test: Minimum inhibitory concentration, statements over several strains; assay type: cell-based; conditions: MIC against S. aureus and P. aeruginosa
Description: Bacterial strains (E. coli ATCC 29522, S. aureus ATCC 29213, A. baumannii ATCC 19606, and P. aeruginosa ATCC 27853) were grown overnight on LB agar plates at 37 °C. Overnight cultures were prepared by inoculation of two to three colonies in 10 mL non-cation adjusted Mueller–Hinton broth (MHB) media (BD BBLTM Beef extract powder, BD BactoTMCasamino acids, and DIFCO soluble starch). Bacterial inoculum for MIC testing was prepared as balanced cultures, as previously described. The bacterial suspension was adjusted using MHB to an OD600 of 0.1, approximately 1·10^8 colony forming units (CFU/mL), and then diluted 1:200 in MHB, to give a final bacterial suspension of 5·10^5 CFU/mL, as described by Wiegand et al.. […] For MIC determination, all peptides were measured in triplicates using the protocol described by Wiegand et al. for “antimicrobial peptides that require the presence of acetic acid/BSA”. In brief, 20 µL peptide solution and gentamycin solution was transferred to column 1 of 96-well plates. Next, 10 µL 0.2% BSA; 0.01% acetic acid MHB media was transferred to column 2–11. Subsequently, peptides were serially diluted two-fold in the MIC plate and 90 µL bacterial suspension was transferred to all wells in column 1–11. […] The colonies were counted and 50 colonies were expected on the 1:10,000 plates and 500 on the 1:1000 plates.

E. coli ATCC 29522 = assay type: cell-based; conditions: for Minimum inhibitory concentration EC: ATCC 29522
Description: (§1) Bacterial strains (E. coli ATCC 29522, S. aureus ATCC 29213, A. baumannii ATCC 19606, and P. aeruginosa ATCC 27853) were grown overnight on LB agar plates at 37 °C. Overnight cultures were prepared by inoculation of two to three colonies in 10 mL non-cation adjusted Mueller–Hinton broth (MHB) media (BD BBLTM Beef extract powder, BD BactoTMCasamino acids, and DIFCO soluble starch). Bacterial inoculum for MIC testing was prepared as balanced cultures, as previously described. The bacterial suspension was adjusted using MHB to an OD600 of 0.1, approximately 1·10^8 colony forming units (CFU/mL), and then diluted 1:200 in MHB, to give a final bacterial suspension of 5·10^5 CFU/mL, as described by Wiegand et al.. […] For MIC determination, all peptides were measured in triplicates using the protocol described by Wiegand et al. for “antimicrobial peptides that require the presence of acetic acid/BSA”. In brief, 20 µL peptide solution and gentamycin solution was transferred to column 1 of 96-well plates. Next, 10 µL 0.2% BSA; 0.01% acetic acid MHB media was transferred to column 2–11. Subsequently, peptides were serially diluted two-fold in the MIC plate and 90 µL bacterial suspension was transferred to all wells in column 1–11. Next, 100 µL bacterial suspension was transferred to column 12 D–F (growth control) and 100 µL media to column 12 A–C (sterility control). After an overnight incubation at 37 °C of the MIC plates, MIC values were determined as the lowest concentration at which there was no visible bacterial growth. For the inoculum control, 10 µL of solution from a positive-growth control well from each bacterial strain was dissolved in 990 µL phosphate-buffered saline (PBS) (1:100 dilution) in an Eppendorf tube. This solution was vortexed and 100 µL transferred to another Eppendorf tube containing 900 µL PBS (1:10 dilution) and vortexed. Then, 100 µL of each dilution was spread onto the MHB media plates, in triplicates, to achieve a CFU dilution of 1:1000 and 1:10,000, respectively. The plates were incubated overnight at 37 °C. The colonies were counted and 50 colonies were expected on the 1:10,000 plates and 500 on the 1:1000 plates.

S. aureus ATCC 29213 [2] = assay type: cell-based
Description: as §1

P. aeruginosa ATCC 27853 [3] = assay type: cell-based
Description: as §1

A. baumannii ATCC 19606 = assay type: cell-based; conditions: for Minimum inhibitory concentration AB: ATCC 19606
Description: as §1

[4] = RP-HPLC retention time as indicator of hydrophobicity/amphipathicity; assay type: physicochemical; conditions: chromatographic, Waters Symmetry C18 4.6 × 250 mm, used as measure of hydrophobicity/amphipathicity (Table S1)
Description: Cleavage was performed on half or all of the resin with a TFA:H2O:TIS (95:2.5:2.5) solution for 2 h. The cleavage solution was collected and concentrated with a gentle stream of N2, down to about 300 µL. The peptide was precipitated and washed with 4 mL cold (−20 °C) diethyl ether, 3 times. The residual ether was left overnight to evaporate. Next, the crude product was dissolved in 90% water and 10% ACN and freeze-dried, ready for analysis and purification. Peptides were identified using Matrix Assisted Laser Desorption Ionization time of flight mass spectroscopy (MALDI–ToF MS). To this end, 1 µL peptide solution and 1 µL α-cyano4-hydroxycinnamic acid matrix (10 mg/ mL in ACN:H2O:TFA, 50:47.5:2.5) were spotted onto a target plate, followed by detection using a MicroflexTM. FlexControl software was used to obtain the spectra and the data were processed using flexAnalysis [Bruker Daltonik GmbH]. RP–HPLC was used to assess peptide purity. The system consisted of a WatersTM In-Line Degasser AF, a WatersTM 600 pump, a WatersTM 2996 Photodiode Array Detector, and a WatersTM Symmetry C18, 4.6 × 250 mm, […] column. The data were processed using Empower3 software. Purity was ≥95% for all tested peptide. Peptide purification was done by dissolving the peptides in minimal […], and 300–500 µL was injected into the HPLC system to achieve separation.

red blood cells = conditions: at 150 µM peptide; 0.5% v/v RBC in PBS, 1 h 37 °C, absorbance 414 nm, normalized to melittin (100%) and PBS (0%)
Description: A total of 150 µL of 5 µM melittin was added to the positive control wells 1-6H of a V-shaped 96-well polypropylene plate and left overnight. The melittin solution was removed and the positive control wells were washed 3 times with 150 µL PBS. Afterwards, a 2.5 µM melittin solution was added to the positive control wells. For the assay, 0-negative blood in EDTA was used. Blood was washed by mixing 3 mL of PBS with 1 mL of whole blood, and centrifuged for 8 min at 3000 rpm. The supernatant was discarded and 4 mL of PBS added, mixed gently, and centrifuged. This wash cycle was repeated but the last centrifuge velocity was raised to 4000 rpm. Next, 40 µL red blood cells (RBC) was suspended in 8 mL of PBS to achieve an RBC suspension of 0.5% volume/volume (v/v). Peptide solutions were prepared at 600 µM, two times the highest concentration. A total of 150 µL peptide solution was transferred to row A. Next, 75 µL PBS was transferred to wells B1 to G12, as well as H7-12 (negative control), and the peptides were serially diluted two-fold. Then, 75 µL RBC suspension was added to all wells and the plate was covered with a Microseal® film and incubated for 1 h at 37 °C. Next, the plate was centrifuged for 10 min at 4000 rpm. Subsequently, 60 µL supernatant was transferred into the corresponding wells of a clear, polystyrene, flat-bottomed 96-well ELISA plate. The absorbance was read at λ = 414 nm with a VersaMaxTM Tunable Microplate Reader and the data were evaluated on Softmax® Pro. The results were normalized with respect to the average positive (100%) and negative (0%) controls, as described previously [43].

S. aureus ATCC 29213 [5] = test: Time-kill kinetics; assay type: cell-based
Description: (§2) The killing kinetics of compound 11 (Figure 1A–D) were performed in two types of experiments on approximately 5 × 10^5 (exponential phase) and 5 × 10^7 (late exponential phase) colony forming units (CFU). […] Colistin and chloramphenicol was used as control antibiotics against P. aeruginosa and S. aureus, respectively. Chloramphenicol was chosen against S. aureus because initial experiments indicated 11 to be bacteriostatic. Time-kill experiments were performed on balanced exponentially growing cultures of S. aureus ATCC 29213 or P. aeruginosa ATCC 27853. We used balanced cultures, as described in Oddo et al.. In brief, overnight cultures were prepared in MHB broth at 37 °C, with shaking. Overnight cultures, were back diluted and grown exponentially for no less than 8–10 generations, before experimentation. When experiments were done at OD600 = 0.0005 ~5 × 10^5, the cultures were back diluted into fresh MHB, heated to 37 °C from an exponentially growing culture. In the late exponential phase, cultures were simply kept in the exponential phase, until OD600 = 0.1, before experimentation.

P. aeruginosa ATCC 27853 [6] = test: Time-kill kinetics; assay type: cell-based; conditions: for kind of activity in time-kill experiments: P. aeruginosa; for effect on CFU: P. aeruginosa late exponential phase (OD600 ~0.1)
Description: as §2

[7] = P. aeruginosa late exponential phase, 5× MIC

| Compound | increase in activity compared to BSI-9 [1] [fold] | Minimum inhibitory concentration EC (E. coli ATCC 29522) [µg/mL] | Minimum inhibitory concentration SA (S. aureus ATCC 29213 [2]) [µg/mL] | Minimum inhibitory concentration PA (P. aeruginosa ATCC 27853 [3]) [µg/mL] | Minimum inhibitory concentration AB (A. baumannii ATCC 19606) [µg/mL] | HPLC retention time (RT) [4] [min] | percent hemolytic activity against red blood cells (%H) (red blood cells) [%] | reduction in CFU (S. aureus ATCC 29213 [5]; S. aureus exponential phase, 1× MIC) [log] | reduction in CFU (S. aureus ATCC 29213 [5]; S. aureus exponential phase, 3× MIC and 5× MIC) [log] | reduction in CFU (S. aureus ATCC 29213 [5]; S. aureus late exponential phase, 5× MIC, regrowth after 24 h) [log] | kind of activity in time-kill experiments (P. aeruginosa ATCC 27853 [6]) | reduction in viable bacterial counts (P. aeruginosa ATCC 27853 [6]; P. aeruginosa exponential phase (~5 × 10^5 CFU), 1× MIC) | reduction in CFU (P. aeruginosa ATCC 27853 [6]; P. aeruginosa exponential phase, 3–5× MIC, within the first hour) [log] | effect on CFU (P. aeruginosa ATCC 27853 [6]; 1× MIC) | reduction in CFU (P. aeruginosa ATCC 27853 [6]; P. aeruginosa late exponential phase, 3× MIC) [log] | reduction in CFU (P. aeruginosa ATCC 27853 [6]; [7]) [log] | activity in MIC assays (E. coli ATCC 29522; E. coli) | activity in MIC assays (A. baumannii ATCC 19606; A. baumannii) |
| --- | --- | --- | --- | --- | --- | --- | --- | --- | --- | --- | --- | --- | --- | --- | --- | --- | --- | --- |
| NCC[C@@H]1NC(=O)[C@H](Cc2ccc3ccccc3c2)NC(=O)COCCOCCNC(=O)[C@H](Cc2ccc(-c3ccccc3)cc2)NC(=O)[C@H](CCN)NC(=O)[C@H](CCN)NC(=O)[C@H](Cc2ccc3ccccc3c2)NC(=O)[C@H](CCN)NC(=O)[C@H](CC(N)=O)NC1=O [compound 9] (cyclo([Dab][2Nal][Dab][Dab][Bip][AEEA][2Nal][Dab]N)) | 8 | >64 | 8 (≈ 6.26 µM) | 4 (≈ 3.13 µM) | 32 (≈ 25 µM) | 17.8 | 76 |  |  |  |  |  |  |  |  |  |  |  |
| N=C(N)NCCC[C@@H]1NC(=O)[C@H](Cc2ccc3ccccc3c2)NC(=O)[C@H](CCN)NC(=O)[C@H](CC(N)=O)NC(=O)[C@H](CCN)NC(=O)[C@H](Cc2ccc3ccccc3c2)NC(=O)COCCOCCNC(=O)[C@H](Cc2ccc(-c3ccccc3)cc2)NC(=O)[C@H](CCN)NC1=O [compound 11] (cyclo([Dab][2Nal]R[Dab][Bip][AEEA][2Nal][Dab]N)) |  | 32 (≈ 24 µM) |  |  | 32 (≈ 24 µM) |  | 36 | 2 | > 3 | 3 | bactericidal | ~ 2 log | > 3 | virtually no effect | 1 | 3 | no activity | no activity |
| N=C(N)NCCC[C@@H]1NC(=O)[C@H](Cc2ccc3ccccc3c2)NC(=O)COCCOCCNC(=O)[C@H](Cc2ccc(-c3ccccc3)cc2)NC(=O)[C@H](CCN)NC(=O)[C@H](CCN)NC(=O)[C@H](Cc2ccc3ccccc3c2)NC(=O)[C@H](CCN)NC(=O)[C@H](CC(N)=O)NC1=O [compound 13] (cyclo([Dab][2Nal][Dab][Dab][Bip][AEEA][2Nal]RN)) |  | 32 (≈ 24 µM) | 1 (≈ 0.75 µM) | 4 (≈ 3 µM) | 64 (≈ 48 µM) | 17.9 | 80 |  |  |  |  |  |  |  |  |  |  |  |
| N=C(N)NCCC[C@@H]1NC(=O)[C@H](Cc2ccc3ccccc3c2)NC(=O)COCCOCCNC(=O)[C@H](Cc2ccc(-c3ccccc3)cc2)NC(=O)[C@H](CCCNC(=N)N)NC(=O)[C@H](CCCNC(=N)N)NC(=O)[C@H](Cc2ccc3ccccc3c2)NC(=O)[C@H](CCCNC(=N)N)NC(=O)[C@H](CC(N)=O)NC1=O [compound 14] (cyclo(R[2Nal]RR[Bip][AEEA][2Nal]RN)) |  | >64 | 32 (≈ 21.3 µM) | 32 (≈ 21.3 µM) | >64 |  | 68 |  |  |  |  |  |  |  |  |  |  |  |
| N=C(N)NCCC[C@@H]1NC(=O)[C@H](CC(N)=O)NC(=O)[C@H](CCN)NC(=O)[C@H](Cc2ccc3ccccc3c2)NC(=O)COCCOCCNC(=O)[C@H](Cc2ccccc2)NC(=O)[C@H](CCN)NC(=O)[C@H](CCN)NC(=O)[C@H](Cc2ccc3ccccc3c2)NC1=O [compound 17] (cyclo(R[2Nal][Dab][Dab]F[AEEA][2Nal][Dab]N)) |  | 64 (≈ 50.9 µM) | 64 (≈ 50.9 µM) | 16 (≈ 12.7 µM) | >64 |  | 3 |  |  |  |  |  |  |  |  |  |  |  |
| N=C(N)NCCC[C@@H]1NC(=O)[C@H](Cc2ccc3ccccc3c2)NC(=O)[C@H](CCN)NC(=O)[C@H](CC(N)=O)NC(=O)[C@H](CCN)NC(=O)[C@H](Cc2ccc3ccccc3c2)NC(=O)COCCOCCNC(=O)[C@H](Cc2ccccc2)NC(=O)[C@H](CCN)NC1=O [compound 18] (cyclo([Dab][2Nal]R[Dab]F[AEEA][2Nal][Dab]N)) |  | 64 (≈ 50.9 µM) | 64 (≈ 50.9 µM) | 16 (≈ 12.7 µM) | >64 |  | 30 |  |  |  |  |  |  |  |  |  |  |  |
| colistin [reference compound] |  |  |  |  |  |  |  |  |  |  | bactericidal |  |  | virtually no effect |  | 1 |  |  |
